This note sets out measurements from patent US11691969B2, “Pyridazinones as PARP7 inhibtors” (Ribon Therapeutics, Inc., priority 2019, dated 2023).

One assay deals with PARP7 (Homo sapiens (Human), UniProt Q7Z3E1). The assay can be described thus: TR-FRET assay: displacement of biotinylated Probe A from the TIPARP active site (Enzymatic Assay for Inhibition of PARP7). The settings on record: TIPARP 6 nM, Probe A 2 nM, 25° C. The assay is classed as binding. An outline of the steps:
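6 nM His-tagged TIPARP and 2 nM biotinylated Probe A preincubated with compound 30 min at 25 °C in HEPES pH 8 buffer, then 4 nM ULight-anti-6×His and 0.25 nM Eu-streptavidin added for 30 min more. 665/615 nm ratio normalised to DMSO and 100 μM reference inhibitor controls; IC50 from 4-parameter fit.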

In a further assay the test system is NCI-H1373 cells. Briefly: Tumor growth in human lung cancer model NCI-H1373 (subcutaneous xenograft). The settings on record: 100 mg/kg PO QD*28 days, NCI-H1373 tumors in CB-17 SCID mice, compared to vehicle (50% Labrasol). It is filed as in vivo. The source says: Example B. PARP7 Inhibitors' Affect on Tumor Growth in Human Lung Cancer Models NCI-H1373
In this study, CB-17 SCID mice were inoculated subcutaneously at the right flank with NCI-H1373 cells for tumor development. Six days after tumor inoculation, 20 mice with tumor size ranging from 105-160 mm^3 (average tumor size 132 mm^3) were selected and assigned into 2 groups using stratified randomization with 10 mice in each group based upon their tumor volumes. The treatments were started from the next day post randomization (defined randomization day as day 0), and the mice were treated with vehicle (50% Labrasol), the compound of Example 57 (100 mg/kg PO. QD*28 days). The tumor sizes were measured three times per week during the treatment. The entire study was terminated on day 28.
Mean tumor volume and SEM were plotted (FIG. 1). Statistical significance, calculated using two-way ANOVA combined with Bonferroni post-test in which treatment group was compared to vehicle control, is indicated by an asterisk.
(A xenograft is tissue or cells of one species grown in another, often human tumour cells in immunodeficient mice.)

PARP7, sequence (Q7Z3E1 whole entry): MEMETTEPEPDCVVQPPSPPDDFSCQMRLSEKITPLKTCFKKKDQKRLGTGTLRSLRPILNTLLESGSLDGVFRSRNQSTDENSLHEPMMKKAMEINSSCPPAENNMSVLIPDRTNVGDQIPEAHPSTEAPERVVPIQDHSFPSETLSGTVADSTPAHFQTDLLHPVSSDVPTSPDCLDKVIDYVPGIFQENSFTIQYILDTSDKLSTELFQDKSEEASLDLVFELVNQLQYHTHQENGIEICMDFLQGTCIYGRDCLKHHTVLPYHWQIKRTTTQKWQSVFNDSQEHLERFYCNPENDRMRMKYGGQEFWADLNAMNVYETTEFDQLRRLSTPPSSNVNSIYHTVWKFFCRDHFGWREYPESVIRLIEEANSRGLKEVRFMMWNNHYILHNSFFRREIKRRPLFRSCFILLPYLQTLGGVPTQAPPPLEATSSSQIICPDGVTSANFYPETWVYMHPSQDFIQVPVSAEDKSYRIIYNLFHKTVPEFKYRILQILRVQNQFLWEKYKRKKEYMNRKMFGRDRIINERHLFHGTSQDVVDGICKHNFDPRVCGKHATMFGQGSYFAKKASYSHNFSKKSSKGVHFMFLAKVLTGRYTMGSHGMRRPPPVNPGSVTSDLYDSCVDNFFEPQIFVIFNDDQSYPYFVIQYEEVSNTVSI

What is called IC50 is the midpoint of a concentration-inhibition curve. Read a low IC50 as inhibition by little substance. `C[C@@H](CO[C@@H]1CCN([C@@H]2CCN(c3ncc(C(F)(F)F)cn3)C[C@H]2O)C1=O)Nc1cn[nH]c(=O)c1C(F)(F)F` [Example 57, 5-(((S)-1-(((R)-1-((3R,4R)-3-hydroxy-1-(5-(trifluoromethyl)pyrimidin-2-yl)piperidin-4-yl)-2-oxopyrrolidin-3-yl)oxy)propan-2-yl)amino)-4-(trifluoromethyl)pyridazin-3(2H)-one]: the IC50 on PARP7 was less than 100 nM. Moreover, in the assay on NCI-H1373 cells, the “tumor growth (mean tumor volume)” value is reported as “significantly reduce tumor growth”.

At PARP7, `O=C1[C@H](OC[C@H](CNCC(F)(F)F)Nc2cn[nH]c(=O)c2C(F)(F)F)CCN1C1CCN(c2ncc(C(F)(F)F)cn2)CC1` [Example 62, 5-(((S)-1-(((R)-2-oxo-1-(1-(5-(trifluoromethyl)pyrimidin-2-yl)piperidin-4-yl)pyrrolidin-3-yl)oxy)-3-((2,2,2-trifluoroethyl)amino)propan-2-yl)amino)-4-(trifluoromethyl)pyridazin-3(2H)-one] registered an IC50 of less than 100 nM.

On to `COC[C@@H](CO[C@H]1CCN(C2CCN(c3cnc(C(F)(F)F)cn3)CC2)C1=O)Nc1cn[nH]c(=O)c1C(F)(F)F` [Example 18A, 5-(((S)-1-methoxy-3-(((S)-2-oxo-1-(1-(5-(trifluoromethyl)pyrazin-2-yl)piperidin-4-yl)pyrrolidin-3-yl)oxy)propan-2-yl)amino)-4-(trifluoromethyl)pyridazin-3(2H)-one], for which the IC50 on PARP7 was in the range of 100 to 1000 nM.

For `COC[C@@H](CO[C@H]1CCN(C2CCN(c3ncc(C(F)(F)F)cn3)CC2)C1=O)Oc1cn[nH]c(=O)c1C(F)(F)F` [Example 51A, 5-(((S)-1-methoxy-3-(((S)-2-oxo-1-(1-(5-(trifluoromethyl)pyrimidin-2-yl)piperidin-4-yl)pyrrolidin-3-yl)oxy)propan-2-yl)oxy)-4-(trifluoromethyl)pyridazin-3(2H)-one], the IC50 on PARP7 is 100 to 1000 nM.
